Source: US8828993B2, “Psychotropic agents having glutamate NMDA activity” (Ramot At Tel-Aviv University Ltd., priority 2006, dated 2014)

Test system: rats pretreated with MK-801
Assay: Morris Water Maze in rats pretreated with MK-801
Assay type: in vivo
Details: rats, MK-801 alone 0.15 mg/kg i.p. on day 1
Description: (§1) The Morris Water Maze is a well known test aimed to assess spatial cognitive tasks (Anger, et al., Animal test systems to study behavioral dysfunctions of neurodegenerative disorders, Neurotoxicology, 12, 403-13 (1991)). The maze consists of a circular pool measuring 1.80 m in diameter 60 cm in height. The pool was filled with water (21±1° C.) to a depth of 30 cm. A circular hidden escape platform (10 cm in diameter) was placed just below the water surface. The test room contained several permanent extra maze cues such as the rat housing rack, laboratory table, posters on the walls, etc.
as §1, with “tasks.” for “tasks (Anger, et al., Animal test systems to study behavioral dysfunctions of neurodegenerative disorders, Neurotoxicology, 12, 403-13 (1991)).”
In the experiment rats were given Compound 1 orally on day 1 and the first test begun 90 minute later, six trials per day, for 3 consecutive days, to find the hidden platform (acquisition phase). The escape latency, i.e., the time required by the rat to find and climb onto the platform, was recorded for up to 120 sec. Each rat was allowed to remain on the platform for 30 sec, after which it was removed to its home cage.
A video camera was placed above the center of the pool for tracking the rat, and a video tracking system (Noldus) with online digital output directly fed data into a computer. Data were analyzed using EthoVision automated tracking system software (Noldus).
Compound 1 at both doses decreased the latency to the platform on day 3 of the experiment but not on days 1 and 2.
The relief of cognitive impairments was also shown in the use of Compound 6. […] Compound 6 at 10 mg/kg decreased the latency to the platform on days 2 and 3 of the experimentation.

C[C@]12N[C@H](Cc3ccccc31)c1ccccc12 [MK-801, reference compound]
memory tasks (latency to the platform) compared to normal controls: significant impairment
